Values quoted from earlier work in patent US20230066947A1, “Method for the augmentation of substance abuse therapies using cannabinoid formulations” (priority 2021, published 2023).
Like-named read-outs stand apart in the source and are kept apart here.

Assays:
COX-2 = molecular target: T1, COX-2 (Homo sapiens, UniProt P35354); conditions: compared with common NSAIDS
T1 sequence (P35354 18-604): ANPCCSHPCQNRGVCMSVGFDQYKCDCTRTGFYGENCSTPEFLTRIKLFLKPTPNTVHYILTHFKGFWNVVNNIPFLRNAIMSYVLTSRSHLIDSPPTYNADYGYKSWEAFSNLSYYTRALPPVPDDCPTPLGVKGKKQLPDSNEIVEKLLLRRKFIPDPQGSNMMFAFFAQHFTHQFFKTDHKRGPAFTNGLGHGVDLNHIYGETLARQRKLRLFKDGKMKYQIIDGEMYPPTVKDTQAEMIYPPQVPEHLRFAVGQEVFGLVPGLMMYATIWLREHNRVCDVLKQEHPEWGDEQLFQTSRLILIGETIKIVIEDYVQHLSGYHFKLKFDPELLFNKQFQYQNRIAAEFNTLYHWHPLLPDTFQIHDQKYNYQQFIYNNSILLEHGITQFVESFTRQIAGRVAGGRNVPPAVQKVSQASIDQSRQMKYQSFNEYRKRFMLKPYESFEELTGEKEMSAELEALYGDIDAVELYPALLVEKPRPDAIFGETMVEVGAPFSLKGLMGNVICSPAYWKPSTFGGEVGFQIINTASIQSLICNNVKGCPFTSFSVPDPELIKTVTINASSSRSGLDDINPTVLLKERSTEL

[1] = tested on: specific serotonin receptor linked to anti-nausea and anti-anxiety effects

For `C=C(C)[C@@H]1CCC(C)=C[C@H]1c1c(O)cc(CCCCC)c(C(=O)O)c1O` [CBDA], the COX-2 inhibitor behavior (COX-2) is listed as “same COX-2 inhibitor behavior”, the bioavailability (intraperitoneal administration) is listed as 80% and the bioavailability (orally ingested) is listed as “approximately 20%”. For the same compound, the “affinity to bind to a specific serotonin receptor” value [1] was “far greater affinity”.
